Assay results reported in patent US20220127247A1, “N-(PYRIDIN-2-YL)PYRIDINE-SULFONAMIDE DERIVATIVES AND THEIR USE IN THE TREATMENT OF DISEASE” (NOVARTIS AG, priority 2019, published 2022).

Molecular target: T1, delF508-CFTR (Homo sapiens, UniProt P13569, DEL508-508)
T1 construct: expressed in transfected cells
Experiment: Measurement of delF508-CFTR-HRP surface expression in CFBE41o- cells
Type: cell-based
Details: for EC50: HRP-tagged delF508-CFTR in CFBE41o- cells, 24 h with compound, luminescence, 10-point curve, top 10 μM; for Emax: efficacy relative to reference compound 3-(6-(1-(2,2-difluorobenzo[d][1,3]dioxol-5-yl)cyclopropane-1-carboxamido)-3-methylpyridin-2-yl)benzoic acid, CFBE41o- cells, 24 h, read-out: DelF508-CFTR-HRP Amax %
Procedure, shortened: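 CFBE41o- cells stably expressing delF508-CFTR with HRP in the fourth extracellular loop, induced with 500 ng/mL doxycycline for 48 h, then treated with compound (top 10 μM, 10-point 3-fold) for 24 h at 37° C. Surface HRP detected by luminescence with cell-impermeant substrate; EC50 from logistic fit of triplicates, normalized to lowest concentration.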

T1 sequence (P13569 with tags, fused parts or gaps DEL508-508): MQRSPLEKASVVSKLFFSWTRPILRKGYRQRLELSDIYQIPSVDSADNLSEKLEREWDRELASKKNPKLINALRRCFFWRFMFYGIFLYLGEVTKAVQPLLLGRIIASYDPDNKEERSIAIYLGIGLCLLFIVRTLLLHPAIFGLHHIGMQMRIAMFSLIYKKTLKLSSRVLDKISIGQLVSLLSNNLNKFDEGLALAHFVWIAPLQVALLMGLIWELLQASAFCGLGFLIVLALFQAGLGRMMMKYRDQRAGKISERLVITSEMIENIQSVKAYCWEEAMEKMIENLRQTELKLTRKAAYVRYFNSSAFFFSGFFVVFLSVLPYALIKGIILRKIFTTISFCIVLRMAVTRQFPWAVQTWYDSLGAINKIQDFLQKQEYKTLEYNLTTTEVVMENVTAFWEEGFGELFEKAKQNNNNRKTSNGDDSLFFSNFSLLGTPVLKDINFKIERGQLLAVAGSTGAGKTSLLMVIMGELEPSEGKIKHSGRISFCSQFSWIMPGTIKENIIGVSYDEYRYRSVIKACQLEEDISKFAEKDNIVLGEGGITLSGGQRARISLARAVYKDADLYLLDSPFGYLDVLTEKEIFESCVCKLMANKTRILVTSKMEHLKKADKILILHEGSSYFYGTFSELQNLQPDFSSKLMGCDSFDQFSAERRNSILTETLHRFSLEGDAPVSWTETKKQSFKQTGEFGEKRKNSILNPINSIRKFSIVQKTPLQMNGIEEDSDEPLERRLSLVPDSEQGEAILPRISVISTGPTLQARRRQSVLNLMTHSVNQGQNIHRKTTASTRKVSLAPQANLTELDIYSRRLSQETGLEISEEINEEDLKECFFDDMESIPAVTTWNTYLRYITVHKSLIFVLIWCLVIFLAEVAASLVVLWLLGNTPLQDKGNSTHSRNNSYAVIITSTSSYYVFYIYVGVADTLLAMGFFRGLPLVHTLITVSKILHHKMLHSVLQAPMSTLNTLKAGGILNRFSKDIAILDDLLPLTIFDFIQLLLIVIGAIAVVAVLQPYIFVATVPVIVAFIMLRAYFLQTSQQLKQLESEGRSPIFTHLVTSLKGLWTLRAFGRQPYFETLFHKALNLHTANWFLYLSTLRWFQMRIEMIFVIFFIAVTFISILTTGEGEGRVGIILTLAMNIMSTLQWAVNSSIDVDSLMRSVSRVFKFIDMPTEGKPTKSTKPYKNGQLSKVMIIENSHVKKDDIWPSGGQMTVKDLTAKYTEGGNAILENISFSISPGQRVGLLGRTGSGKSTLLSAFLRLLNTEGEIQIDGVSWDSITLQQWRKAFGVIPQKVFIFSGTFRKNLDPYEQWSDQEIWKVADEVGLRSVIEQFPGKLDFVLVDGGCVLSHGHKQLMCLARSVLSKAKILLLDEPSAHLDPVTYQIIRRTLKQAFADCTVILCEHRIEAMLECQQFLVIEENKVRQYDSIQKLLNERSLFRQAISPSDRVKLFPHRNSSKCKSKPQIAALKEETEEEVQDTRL

Row | SMILES | EC50 | Emax
1 | Cc1ccc(F)cc1-c1nc(NS(=O)(=O)c2cccc(N(CCC(=O)O)CC3CC3)n2)ccc1C(F)(F)F [Compound 69, 3-((cyclopropylmethyl)(6-(N-(6-(5-fluoro-2-methylphenyl)-5-(trifluoromethyl)pyridin-2-yl)sulfamoyl)pyridin-2-yl)amino)propanoic Acid] | 1760 nM | –
2 | Cc1ccccc1-c1nc(NS(=O)(=O)c2cccc(N3CCCC(CCC(=O)O)C3)n2)ccc1C(F)(F)F (stereo not shown) [Compound 73, 3-(1-(6-(N-(6-(o-tolyl)-5-(trifluoromethyl)pyridin-2-yl)sulfamoyl)pyridin-2-yl)piperidin-3-yl)propanoic acid] | 1390 nM | –
3 | C=Cc1ccccc1-c1nc(NS(=O)(=O)c2cccc(N3CCCC(CCC(=O)O)C3)n2)ccc1C(F)(F)F (stereo not shown) [Compound 74, 3-(1-(6-(N-(5-(trifluoromethyl)-6-(2-vinylphenyl)pyridin-2-yl)sulfamoyl)pyridin-2-yl)piperidin-3-yl)propanoic Acid] | 1090 nM | –
4 | Cc1ccccc1-c1nc(NS(=O)(=O)c2cccc(N3CCCC(CCCC(=O)O)C3)n2)ccc1C(F)(F)F (stereo not shown) [Compound 75, 4-(1-(6-(N-(6-(o-tolyl)-5-(trifluoromethyl)pyridin-2-yl)sulfamoyl)pyridin-2-yl)piperidin-3-yl)butanoic Acid] | 2000 nM | –
5 | C=Cc1ccccc1-c1nc(NS(=O)(=O)c2cccc(N3CCCC(CCCC(=O)O)C3)n2)ccc1C(F)(F)F (stereo not shown) [Compound 76, 4-(1-(6-(N-(5-(trifluoromethyl)-6-(2-vinylphenyl)pyridin-2-yl)sulfamoyl)pyridin-2-yl)piperidin-3-yl)butanoic Acid] | 1460 nM | –
6 | C=Cc1ccccc1-c1nc(NS(=O)(=O)c2cccc(N3CCC[C@H](CC(=O)OCC)C3)n2)ccc1C(F)(F)F [Compound 77, ethyl (R)-2-(1-(6-(N-(5-(trifluoromethyl)-6-(2-vinylphenyl)pyridin-2-yl)sulfamoyl)pyridin-2-yl)piperidin-3-yl)acetate] | 1450 nM | 945%
7 | C=Cc1ccccc1-c1nc(NS(=O)(=O)c2cccc(N3CCC[C@@H](CC(=O)OC)C3)n2)ccc1C(F)(F)F [Compound 78, methyl (S)-2-(1-(6-(N-(5-(trifluoromethyl)-6-(2-vinylphenyl)pyridin-2-yl)sulfamoyl)pyridin-2-yl)piperidin-3-yl)acetate] | 1410 nM | –
8 | Cc1ccccc1-c1nc(NS(=O)(=O)c2cccc(N3CCC(CCC(=O)O)CC3)n2)ccc1C(F)(F)F [Compound 79, 3-(1-(6-(N-(6-(o-tolyl)-5-(trifluoromethyl)pyridin-2-yl)sulfamoyl)pyridin-2-yl)piperidin-4-yl)propanoic Acid] | 2910 nM | 330%
9 | CCc1ccccc1-c1nc(NS(=O)(=O)c2cccc(N3CCCC(CCC(=O)O)C3)n2)ccc1C(F)(F)F (stereo not shown) [Compound 82, 3-(1-(6-(N-(6-(2-ethylphenyl)-5-(trifluoromethyl)pyridin-2-yl)sulfamoyl)pyridin-2-yl)piperidin-3-yl)propanoic Acid] | 1040 nM | –
10 | CCc1ccccc1-c1nc(NS(=O)(=O)c2cccc(N3CCCC(CCCC(=O)O)C3)n2)ccc1C(F)(F)F (stereo not shown) [Compound 83, 4-(1-(6-(N-(6-(2-ethylphenyl)-5-(trifluoromethyl)pyridin-2-yl)sulfamoyl)pyridin-2-yl)piperidin-3-yl)butanoic Acid] | 1450 nM | –
11 | CCc1ccccc1-c1nc(NS(=O)(=O)c2cccc(N3CCC[C@H](CC(=O)O)C3)n2)ccc1C(F)(F)F [Compound 84, (R)-2-(1-(6-(N-(6-(2-ethylphenyl)-5-(trifluoromethyl)pyridin-2-yl)sulfamoyl)pyridin-2-yl)piperidin-3-yl)acetic Acid] | 1540 nM | –
12 | Cc1ccccc1-c1nc(NS(=O)(=O)c2cccc(N3CCCC(CC(=O)O)C3)n2)ccc1C(F)(F)F (stereo not shown) [Compound 88, 2-(1-(6-(N-(6-(o-tolyl)-5-(trifluoromethyl)pyridin-2-yl)sulfamoyl)pyridin-2-yl)piperidin-3-yl)acetic Acid] | 2040 nM | –
13 | CCN(CCCC(=O)O)c1cccc(S(=O)(=O)Nc2ccc(C(F)(F)F)c(-c3ccccc3C(C)C)n2)n1 [Compound 89, 4-(ethyl(6-(N-(6-(2-isopropylphenyl)-5-(trifluoromethyl)pyridin-2-yl)sulfamoyl)pyridin-2-yl)amino)butanoic Acid] | 970 nM | –
14 | Cc1ccccc1-c1nc(NS(=O)(=O)c2cccc(N(CCC(=O)O)C(C)C)n2)ccc1C(F)(F)F [Compound 91, 3-(isopropyl(6-(N-(6-(o-tolyl)-5-(trifluoromethyl)pyridin-2-yl)sulfamoyl)pyridin-2-yl)amino)propanoic Acid] | 1670 nM | –
15 | Cc1ccccc1-c1nc(NS(=O)(=O)c2cccc(N3CCCCC3CCC(=O)O)n2)ccc1C(F)(F)F (stereo not shown) [Compound 98, 3-(1-(6-(N-(6-(o-tolyl)-5-(trifluoromethyl)pyridin-2-yl)sulfamoyl)pyridin-2-yl)piperidin-2-yl)propanoic Acid] | 1540 nM | –
16 | CCc1ccc(F)cc1-c1nc(NS(=O)(=O)c2cccc(N(CCCCC(=O)O)C(C)C)n2)ccc1C(F)(F)F [Compound 99, 5-((6-(N-(6-(2-ethyl-5-fluorophenyl)-5-(trifluoromethyl)pyridin-2-yl)sulfamoyl)pyridin-2-yl)(isopropyl)amino)pentanoic Acid] | 1330 nM | –
17 | Cc1ccc(F)cc1-c1nc(NS(=O)(=O)c2cccc(N(CCCCC(=O)O)C(C)C)n2)ccc1C(F)(F)F [Compound 100, 5-((6-(N-(6-(5-fluoro-2-methylphenyl)-5-(trifluoromethyl)pyridin-2-yl)sulfamoyl)pyridin-2-yl)(isopropyl)amino)pentanoic Acid] | 2490 nM | –
18 | Cc1ccccc1-c1nc(NS(=O)(=O)c2cccc(N(CCCCC(=O)O)C(C)C)n2)ccc1C(F)(F)F [Compound 101, 5-(isopropyl(6-(N-(6-(o-tolyl)-5-(trifluoromethyl)pyridin-2-yl)sulfamoyl)pyridin-2-yl)amino)pentanoic Acid] | 1590 nM | –
19 | Cc1ccc(F)cc1-c1nc(NS(=O)(=O)c2cccc(N(CCCC(=O)O)CC3CC3)n2)ccc1C(F)(F)F [Compound 104, 4-((cyclopropylmethyl)(6-(N-(6-(5-fluoro-2-methylphenyl)-5-(trifluoromethyl)pyridin-2-yl)sulfamoyl)pyridin-2-yl)amino)butanoic Acid] | 1280 nM | –
20 | CCN(CCC(=O)O)c1cccc(S(=O)(=O)Nc2ccc(C(F)(F)F)c(-c3cc(F)ccc3C3CC3)n2)n1 [Compound 111, 3-((6-(N-(6-(2-cyclopropyl-5-fluorophenyl)-5-(trifluoromethyl)pyridin-2-yl)sulfamoyl)pyridin-2-yl)(ethyl)amino)propanoic Acid] | 1780 nM | –
21 | CCCCN(CCCC(=O)O)c1cccc(S(=O)(=O)Nc2ccc(Cl)c(-c3cccnc3C(C)C)n2)n1 [Compound 112, 4-(butyl(6-(N-(3-chloro-2′-isopropyl-[2,3′-bipyridin]-6-yl)sulfamoyl)pyridin-2-yl)amino)butanoic Acid] | 1570 nM | –
22 | CCc1ccc(F)cc1-c1nc(NS(=O)(=O)c2cccc(N(CCC(=O)O)C3CC3)n2)ccc1C(F)(F)F [Compound 113, 3-(cyclopropyl(6-(N-(6-(2-ethyl-5-fluorophenyl)-5-(trifluoromethyl)pyridin-2-yl)sulfamoyl)pyridin-2-yl)amino)propanoic Acid] | 1770 nM | 715%
